Assay results from patent US9605041B2, “Regulatory proteins and inhibitors” (INTRA-CELLULAR THERAPIES, INC., priority 2009, dated 2017).
“Also recorded” adds a separate entry of the source. One block for each molecule: values may come before it.

Tests used:
γ-secretase = biological target: T1, γ-secretase (Homo sapiens, UniProt P49768); assay: In vitro γ-secretase assay, membranes from HEK293 cells with APP-β-CTF; type: biochemical
T1 construct: Membrane pellets are prepared from HEK293 cells transfected with APP-β-CTF (CT-100) as described above; endogenous in cells; host or cells: membranes of HEK293 cells transfected with APP-β-CTF (CT-100); gSAP-16K added from BL21 DE3 E. coli
Experimental: Membrane pellets are prepared from HEK293 cells transfected with APP-β-CTF (CT-100) as described above, and the membranes are washed with assay buffer (10 mM Hepes, 140 mM KOAc, 2.5 mM MgOAc, 0.1 mM CaCl2, 1 mM ATP, pH 7.2) and pelleted at 100,000 g for 30 min at 4° C. Recombinant gSAP-16K (aa733-854 of the human gSAP) is expressed and purified from BL21 DE3 E. coli. The membranes are resuspended in 200 μl of assay buffer with 2 μg recombinant gSAP-16K or the same amount of BSA as control. A parallel system with 1 μM L685,458 (γ-secretase inhibitor) is also used as a control. The membrane suspension is pre-incubated at 4° C. for 1 hr and then incubated for 2 hr at 37° C. to allow in vitro generation of Aβ. The membranes are solubilized in ¼ volume of 200 mM Tris, pH 7.8, 760 mM NaCl, 24 mM EDTA, 10% Triton X-100, and insoluble material is removed by centrifugation at 10,000 g for 20 min. Aβ is immunoprecipitated from the lysate using 4G8 antibody, separated on 10-20% Tris-tricine gel, transferred to PVDF membrane, and subjected to autoradiography using Kodak MR film.

gSAP = biological target: T2, gSAP (Mus musculus, UniProt Q3TCV3); assay: siRNA knockdown of gSAP in neuroblastoma cells overexpressing APP695, gSAP level and Aβ; type: cell-based
T2 construct: pulse-chase labeling of endogenous gSAP in N2a cells; endogenous in cells; host or cells: Neuroblastoma 2a cells stably overexpressing APP695
T2 sequence (Q3TCV3 738-858 limits assumed): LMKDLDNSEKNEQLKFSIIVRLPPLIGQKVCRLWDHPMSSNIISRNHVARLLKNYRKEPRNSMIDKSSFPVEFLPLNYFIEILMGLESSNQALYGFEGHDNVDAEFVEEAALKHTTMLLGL
Experimental: For cellular gSAP knockdown experiments, small interfering RNA (siRNA) of gSAP is purchased from Dharmacon Inc. The sequences of the siRNA used are as follow: sense sequence: [NT]; antisense sequence: 5'-[NT] Neuroblastoma 2a cell line stably overexpressing APP695 is transfected with siRNA using DharmaFect 2 reagent at a concentration of 50 nM following instructions provided by the manufacturer. […] To assay Aβ, the medium is removed after 48 h of transfection and replaced with Opti-MEM for 3 h incubation. Aβ is then immunoprecipitated from conditioned medium using the 4G8 antibody. Quantitation of Aβ levels in the conditioned medium is also assessed using Aβ40 and Aβ42 ELISA kits (Invitrogen). The procedures are carried out according to the manufacturer's instructions.

Aβ production = details: Netzer et al. 2003; cited from earlier work
[1] = tested on: Aβ production in Neuroblastoma 2a cells stably overexpressing human APP695; assay: Cellular Aβ production assay, incubation with G01 (4G8 immunoprecipitation, 6E10 blot); type: cell-based; details: 10 μM, 3 hr
Experimental: Neuroblastoma 2a cells stably overexpressing human APP695 are treated with 10 μM G01 for 3 hr. Cells treated with DMSO, or DMSO plus imatinib are used as controls. After 3 hr, conditioned medium is collected and Aβ immunoprecipitation is conducted using 4G8 antibody. The immunoprecipitated Aβ is separated on 10-20% Tris-tricine gel, transferred to PVDF membrane and detected by 6E10 antibody. […]

Aβ in N2a cell system = assay: Total human Aβ in the N2a cell system (sandwich ELISA, Western blot); type: cell-based
Experimental: Total human Aβ in the N2a cell system is measured in a standard sandwich ELISA by using a specific monoclonal antibody (6E10, Signet Laboratories) to capture the Aβ40 and Aβ42 and an antibody to Aβ17-24 (4G8, Signet Laboratories, Dedham, Mass.) for detection. Cell culture medium (5 μL/well) is diluted to 100 μL in phosphate-buffered saline/0.2% Tween 20 and loaded onto ELISA plates. For Western blot assays, cell medium is diluted with 2× tricine sodium dodecyl sulfate sample buffer, and heated at 95° C. for 5 min. […] Aβ is detected with antibody 4G8 and an Alexa 680-conjugated rabbit anti-mouse secondary and scanned with a LiCor Odyssey infrared scanner.

Abl kinase [2] = biological target: T3, Abl kinase (Homo sapiens, UniProt P00519); assay: Ki versus Abl kinase; type: biochemical
mouse ΔE-Notch cleavage = assay: ΔE-Notch cleavage in HEK293 cells incubated with test compounds; type: cell-based, human; details: 4 h incubation, DAPT positive control
panel of 40 kinases = assay: Panel of 40 kinases; type: biochemical; details: data not shown
gSAP (16 kDa band) = biological target: T4, gSAP (16 kDa band) (Homo sapiens, UniProt A4D1B5); assay: Affinity capture on immobilized biotin-imatinib beads, silver staining; type: binding; details: HEK293 cell lysates, SDS-PAGE
T4 construct: the 16 kDa band is identified as the C-terminal domain of gSAP by MS/MS mass spectrometry; endogenous in cells; host or cells: CHAPSO-solubilized membrane extract of HEK293 cells
T4 sequence (A4D1B5 734-854 limits assumed): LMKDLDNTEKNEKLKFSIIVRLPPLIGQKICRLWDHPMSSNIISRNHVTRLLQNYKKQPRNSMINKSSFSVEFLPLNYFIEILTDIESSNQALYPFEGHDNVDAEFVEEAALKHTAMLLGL
Experimental: After cell debris is cleared by centrifugation at 1,000 g for 5 mins, the supernatant is subjected to ultracentrifugation at 100,000 g for 1 h. The membrane pellet is then solubilized on ice in 50 mM Hepes, 150 mM NaCl, 5 mM MgCl2, 5 mM CaCl2, and 1% CHAPSO containing protease inhibitors (Roche Inc. cat#04 693 132 001) for 1 h and subject to ultracentrifugation for 1 h at 100,000 g. The soluble membrane extracts are incubated with Myonen™ streptavidin T1 beads (cat#656-01, Invitrogen) containing bound active biotin-imatinib for 3 hr at 4° C. Subsequently, the beads are washed three times with lysate buffer. Bound proteins are eluted with tricine SDS-PAGE sample buffer and separated on 10-20% tris-tricine gels. For immunoblotting, the gel is then transferred to PVDF membrane and probed with γ-secretase antibodies: PS1 antibody (cat#529592) and Pen-2 antibody (cat#NE1008) are from EMD Biosciences and nicastrin antibody is from BD Transduction Laboratories (cat#612290). Silver staining is used to identify protein bands in SDS-PAGE gels. The ˜16 kDa band is excised, trypsinized, and sequenced by tandem MS/MS mass spectrometry.
Endogenous γ-secretase components are detected by specific antibodies to Nicastrin, PS1-CTF and Pen-2. Photoactivatible ^125I and ^3H-G01 are used to label membrane preparations or intact HEK293 cells, respectively. […]

Abl kinase [3] = biological target: T3, Abl kinase; assay: Kinase profiling (Millipore standard assay), Abl kinase
PDGF receptor = assay: Kinase profiling (Millipore standard assay), PDGF receptor; details: ATP=45 μM
gSAP-16K (16 kDa band) = biological target: T5, gSAP-16K (16 kDa band) (Homo sapiens, UniProt A4D1B5); assay: In vitro and intact cell photolabeling with 125I-G01 / 3H-G01; type: binding; details: 20 nM 125I-G01 on membranes or 3H-G01 on intact cells, photolysis
T5 construct: is rapidly processed into a ˜16 kDa C-terminal fragment (gSAP-16K); endogenous in cells; host or cells: HEK293 membrane preparations (125I-G01) and intact HEK293 cells (3H-G01)
T5 sequence (A4D1B5 733-854): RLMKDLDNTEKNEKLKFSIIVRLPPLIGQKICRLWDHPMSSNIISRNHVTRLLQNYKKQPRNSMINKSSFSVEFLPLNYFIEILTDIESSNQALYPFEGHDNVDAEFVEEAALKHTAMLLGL

T3 sequence (P00519 whole entry): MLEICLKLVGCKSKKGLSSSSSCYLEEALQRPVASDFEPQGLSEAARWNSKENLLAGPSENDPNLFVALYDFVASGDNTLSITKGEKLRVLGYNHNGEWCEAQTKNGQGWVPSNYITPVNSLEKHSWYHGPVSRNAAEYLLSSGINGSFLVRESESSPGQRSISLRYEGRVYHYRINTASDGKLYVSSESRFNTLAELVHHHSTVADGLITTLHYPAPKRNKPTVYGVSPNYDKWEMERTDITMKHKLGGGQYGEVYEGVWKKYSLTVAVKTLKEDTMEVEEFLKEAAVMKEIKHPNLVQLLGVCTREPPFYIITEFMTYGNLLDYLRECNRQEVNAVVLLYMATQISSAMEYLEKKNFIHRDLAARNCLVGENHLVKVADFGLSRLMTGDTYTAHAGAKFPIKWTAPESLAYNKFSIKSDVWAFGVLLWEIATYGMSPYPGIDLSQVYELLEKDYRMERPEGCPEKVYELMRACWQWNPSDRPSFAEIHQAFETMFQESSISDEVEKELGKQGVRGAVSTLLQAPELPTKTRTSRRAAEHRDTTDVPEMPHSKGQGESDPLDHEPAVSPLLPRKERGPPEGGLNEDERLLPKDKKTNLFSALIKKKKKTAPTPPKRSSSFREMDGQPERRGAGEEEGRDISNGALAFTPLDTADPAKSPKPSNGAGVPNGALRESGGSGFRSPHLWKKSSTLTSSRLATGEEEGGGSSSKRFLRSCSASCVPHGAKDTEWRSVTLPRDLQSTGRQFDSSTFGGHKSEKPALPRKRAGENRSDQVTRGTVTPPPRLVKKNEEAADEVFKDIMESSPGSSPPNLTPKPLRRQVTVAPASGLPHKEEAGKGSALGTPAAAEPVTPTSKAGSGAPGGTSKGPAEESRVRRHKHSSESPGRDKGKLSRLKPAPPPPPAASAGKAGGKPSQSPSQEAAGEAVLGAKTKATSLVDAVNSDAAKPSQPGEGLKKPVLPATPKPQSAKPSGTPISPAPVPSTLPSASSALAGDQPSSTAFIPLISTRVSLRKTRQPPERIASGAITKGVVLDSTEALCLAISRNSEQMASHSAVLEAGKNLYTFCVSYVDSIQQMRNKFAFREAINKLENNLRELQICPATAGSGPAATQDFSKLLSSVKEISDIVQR

Molecule: Cc1ccc(NC(=O)c2ccc(CN3CCN(C)CC3)cc2)cc1Nc1nccc(-c2cccnc2)n1 [imatinib, reference compound]
additional effect of imatinib on Aβ levels under gSAP siRNA knockdown (gSAP): not additive; also recorded: little or no additional effect
production of Aβ (Aβ production): inhibits production of Aβ

Molecule: Cc1ccc(NC(=O)c2ccc(N=[N+]=[N-])cc2O)cc1Nc1nccc(-c2cccnc2)n1 [G01, 4-azido-2-hydroxy-N-(4-methyl-3-(4-(pyridin-3-yl)pyrimidin-2-ylamino)phenyl)benzamide]
Aβ in conditioned medium compared to DMSO vehicle [1]: significantly reduces Aβ

Molecule: Cc1ncc(NC(=O)c2ccc(CC3CCN(C)CC3)cc2)cc1Nc1nccc(-c2ccccc2)n1 [N-(6-methyl-5-(4-phenylpyrimidin-2-ylamino)pyridin-3-yl)-4-((1-methylpiperidin-4-yl)methyl)benzamide]
concentrations that significantly lower Aβ (Aβ in N2a cell system): < 500 nM
Ki (Abl kinase [2]): ~12 µM
weaker activity versus Abl kinase compared to imatinib (Abl kinase [2]): 100 fold
influence on NOTCH metabolism (mouse ΔE-Notch cleavage): do not influence NOTCH metabolism
kinase inhibitory activity against a panel of 40 kinases (panel of 40 kinases): little kinase inhibitory activity

Molecule: siRNA: siRNA of gSAP, sense AUGCAGAGCUGGACGACAUUU, antisense 5′-P.AUGUCGUCCAGCUCUGCAUUU (5'-phosphate on antisense, further chemistry not given here)
decrease of the level of Aβ (gSAP; gSAP siRNA knockdown): about 50%
reduction of gSAP level (gSAP; siRNA 50 nM): 72±15%

Molecule: Cc1ccc(NC(=O)c2ccc(N=[N+]=[N-])cc2O)cc1Nc1nccc(-c2cccnc2)n1 [^3H-G01]
photolabeling of the 16 kDa protein (gSAP-16K) (gSAP-16K (16 kDa band)): specifically labeled

B1: gSAP-16K: recombinant 16 kDa C-terminal fragment, aa 733-854 of human gSAP, expressed in E. coli (protein, UniProt A4D1B5 733-854, looked up, fragment)
chain: T5 sequence (A4D1B5 733-854)
stimulation of Aβ production (γ-secretase; 2 μg recombinant gSAP-16K added to membranes, BSA control): 2.4±0.3 fold

Further lines, results first:

Aβ production in the in vitro γ-secretase assay (γ-secretase; 1 μM): abolishes Aβ production
Molecule: CC(C)C[C@H](NC(=O)[C@H](Cc1ccccc1)C[C@@H](O)[C@H](Cc1ccccc1)NC(=O)OC(C)(C)C)C(=O)N[C@@H](Cc1ccccc1)C(N)=O [L685,458, reference compound]

binding of the ~16 kDa band (gSAP) to the immobilized compound (gSAP (16 kDa band)): does not bind
inhibitory activity toward Abl kinase (Abl kinase [3]; ATP=45 μM): no significant inhibitory activity
inhibitory activity toward PDGF receptor (PDGF receptor): no significant inhibitory activity
Molecule: Cc1ccc(NC(=O)c2ccc(CN3CCN(C(=O)CCCC[C@@H]4SC[C@@H]5NC(=O)N[C@@H]54)CC3)cc2)cc1Nc1nccc(-c2cccnc2)n1 [IC200001]

IC50 (Abl kinase [3]): 146 nM
IC50 (PDGF receptor; read-out: IC50 against PDGF receptor): 6.6 µM
Molecule: Cc1ccc(NC(=O)c2ccc(CN3CCN(CCNC(=O)CCCC[C@@H]4SC[C@@H]5NC(=O)N[C@@H]54)CC3)cc2)cc1Nc1nccc(-c2cccnc2)n1 [IC339239]
